Paper PMC4996985, “Sequence-Based Screening for Rare Enzymes: New Insights into the World of AMDases Reveal a Conserved Motif and 58 Novel Enzymes Clustering in Eight Distinct Families” (Frontiers in Microbiology, 2016)

Molecular target: T1, AmdP (Polymorphum gilvum, UniProt F2IXG8)
T1 construct: gene SL003B_3169; full length, 744 bp codon-adapted synthetic gene, pET-21a NdeI/XhoI, C-terminal His6 tag kept, E. coli BL21, Ni-NTA purified
T1 sequence (F2IXG8 1-247): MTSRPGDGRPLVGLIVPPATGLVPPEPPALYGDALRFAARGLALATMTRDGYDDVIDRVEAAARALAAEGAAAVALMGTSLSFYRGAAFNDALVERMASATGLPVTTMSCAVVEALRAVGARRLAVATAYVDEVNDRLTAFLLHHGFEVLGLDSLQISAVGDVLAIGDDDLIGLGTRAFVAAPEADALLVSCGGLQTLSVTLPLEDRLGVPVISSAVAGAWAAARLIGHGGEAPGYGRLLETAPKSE
Test: chiral GC of product after derivatisation
Type: biochemical
Conditions: 10 mM substrate, 50 mM Tris pH 7.5; substrate contained <4% racemic flurbiprofen

CC(C(=O)O)(C(=O)O)c1ccc(-c2ccccc2)c(F)c1 [2a, flurbiprofen malonate]
chiral GC of product after derivatisation: selectivity of all three AMDases was analyzed with aryl malonic acid derivates
